The series concerns the target ATP-dependent translocase ABCB1 (Homo sapiens, UniProt P08183). Kind of series: TP_TRANSPORTER: transepithelial transport of digoxin (Digoxin: 30nM) in Caco-2 cells. In kind it is functional, cell-based.

ATP-dependent translocase ABCB1, sequence (P08183 whole entry): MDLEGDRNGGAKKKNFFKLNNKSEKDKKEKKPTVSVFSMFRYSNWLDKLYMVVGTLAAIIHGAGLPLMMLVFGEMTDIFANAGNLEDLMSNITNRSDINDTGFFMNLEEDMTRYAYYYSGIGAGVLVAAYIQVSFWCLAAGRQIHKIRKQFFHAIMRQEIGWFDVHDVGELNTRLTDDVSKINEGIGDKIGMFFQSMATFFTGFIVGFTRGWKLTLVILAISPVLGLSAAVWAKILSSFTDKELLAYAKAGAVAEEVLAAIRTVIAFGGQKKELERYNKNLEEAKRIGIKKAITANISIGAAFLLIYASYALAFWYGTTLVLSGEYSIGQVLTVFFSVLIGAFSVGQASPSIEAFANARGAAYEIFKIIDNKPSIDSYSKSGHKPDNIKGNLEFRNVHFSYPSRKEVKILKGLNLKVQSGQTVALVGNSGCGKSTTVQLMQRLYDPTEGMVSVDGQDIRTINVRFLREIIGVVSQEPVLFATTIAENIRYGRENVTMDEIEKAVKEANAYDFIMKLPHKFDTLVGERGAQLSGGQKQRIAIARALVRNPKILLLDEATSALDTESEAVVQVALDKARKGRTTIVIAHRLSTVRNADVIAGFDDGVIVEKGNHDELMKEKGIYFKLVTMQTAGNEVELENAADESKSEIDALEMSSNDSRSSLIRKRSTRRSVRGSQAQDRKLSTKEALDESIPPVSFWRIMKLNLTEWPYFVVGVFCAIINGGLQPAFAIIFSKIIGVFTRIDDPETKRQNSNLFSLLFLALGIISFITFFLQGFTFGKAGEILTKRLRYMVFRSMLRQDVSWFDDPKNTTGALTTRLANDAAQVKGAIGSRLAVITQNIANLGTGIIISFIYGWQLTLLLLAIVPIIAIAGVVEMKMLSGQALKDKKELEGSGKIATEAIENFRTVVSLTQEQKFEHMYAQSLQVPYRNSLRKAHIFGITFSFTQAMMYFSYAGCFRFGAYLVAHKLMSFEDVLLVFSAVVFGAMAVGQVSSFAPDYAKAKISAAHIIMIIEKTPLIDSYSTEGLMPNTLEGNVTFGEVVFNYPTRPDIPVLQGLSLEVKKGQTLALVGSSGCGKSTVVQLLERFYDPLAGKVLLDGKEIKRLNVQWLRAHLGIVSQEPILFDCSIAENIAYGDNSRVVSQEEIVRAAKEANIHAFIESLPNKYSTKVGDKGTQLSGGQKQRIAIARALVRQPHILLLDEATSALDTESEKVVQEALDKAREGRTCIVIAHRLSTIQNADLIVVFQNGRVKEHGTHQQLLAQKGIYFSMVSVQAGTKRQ

For the substance PUMMELO JUICE, the Activity result is “inhibitor [+]”.
As to GRAPEFRUIT JUICE, the Activity result was “inhibitor [+]”.

The record behind these values is ChEMBL document CHEMBL2074287, “Modulation of digoxin transport across Caco-2 cell monolayers by citrus fruit juices: lime, lemon, grapefruit, and pummelo” (Pharm Res, 2003).
